Test results taken from patent US10195267B2, “Vaccination strategy” (priority 2013, dated 2019).
Oligonucleotides are written 5' to 3', each unit as a sugar letter and its base; * is a phosphorothioate linkage, no mark a phosphodiester; rarer units and linkages stand in square brackets, end groups in braces. Plain capitals give the bases only. d = 2'-deoxy (DNA)

Assays:
[1] = test system: CD8+ T cells (TCM, TEM); assay: Proliferation of adoptively transferred TCM and TEM in the liver (BrdU incorporation, 7-AAD); assay type: in vivo, mice; details: 3 days after intravenous TLR9-ligand
[2] = test system: AdHBV (Hepatitis B Virus); assay: Chronic AdHBV infection, HBc-DNA vaccination followed by TLR9-L at d12; assay type: in vivo, mice
From the text: (a) Mice with chronic AdHBV-infection after 1×10^8 ifu AdHBV-infection. Time course of serum ALT following HBc-DNA vaccination (d0) and TLR9-L or CTRL treatment (d12). OVA-DNA vaccination as control. (n=5 per group). (b-f) At d15 after vaccination, (b) immunohistochemistry for CD11 b and CD8 in the liver as described in (a) at d15 after vaccination; (c) increase of HBc93-100-specific CTLs in spleen and liver detected by dextramer-staining. (n=3 per group), ND, not detectable; (d) IFNγ-producing HBc93-100-specific CTLs isolated from livers of mice after HBc-peptide-specific restimulation ex vivo; (e) total numbers of IFNγ-producing HBc93-100-specific CTLs after peptide-specific restimulation ex vivo per gram liver (n=3, per group); (f) PD-1 expression levels on HBc93-100-specific CTLs directly ex vivo. (g) Serum HBeAg levels from mice as described in (a). (h) Immunohistochemical detection and (i) quantification of HBcore-Ag-positive hepatocytes at d42 after vaccination. HPF, high power field (magnification, 100×). *P<0.05, **P<0.01, ***P<0.001 (paired Student's t-test). Data are representative of three experiments (a, c, d, e, f, g) or two experiments (b, h, i) (a, c, e, i; error bars, s.d.).
C57BL/6J mice were infected with 1×10^8 ifu AdHBV intravenously leading to chronic AdHBV infection, as reported previously (Huang et al. Gastroenterology 2012; 142:1447-50). DNA immunization was performed as described (Huang et al. Gastroenterology 2012; 142:1447-50). After immunization, HBeAg and serum ALT (alanine aminotransferase) activity measured using GPT strips on a REFLOVET™. Plus reader (Roche) were checked at indicated time points. Livers were collected for immunohistochemical analysis. Analysis of CTL number and function ex vivo was done as described previously (Huang et al. Gastroenterology 2012; 142:1447-50).
In this model, therapeutic DNA-vaccination leads to a weak increase in circulating HBV-specific CTLs but fails to control chronic_AdHBV infection. Mice with chronic AdHBV infection were subjected to DNA-vaccination with plasmids coding for the HBV core (HBc) antigen or OVA and received TLR9-L treatment 12 d later.

[3] = test system: recombinant adenovirus expressing OVA and luciferase (AdLOG); assay: Acute adenoviral infection, in vivo bioluminescence as indicator of antiviral CTL activity in the liver
[4] = test system: CTLs; assay: Local CTL expansion in iMATEs in the liver after systemic TLR9-L application; assay type: in vivo, mice
From the text: We discovered that CTL activation by simultaneous stimulation through the TCR, CD28 and IL-12 in vitro, together with systemic application of TLR9-L led to a 50-fold expansion of CTLs locally in the liver. Myeloid cell aggregates, herewith termed iMATEs, which formed in the liver upon TLR9-signaling, facilitate massive CTL expansion, which contributes to anti-viral immunity and overcomes chronic viral infection in mice.

[5] = test system: lymphocytic choriomeningitis virus (LCMV); assay type: in vivo, mice
[6] = test system: OT-I CTLs; assay: Hepatic OT-I CTL expansion and iMATE formation in AdLGO- or AdLG-infected mice
[7] = TLR9-L at d12 after HBcore-DNA vaccination

5′-S-TCCATGACGTTCCTGATGCT-3′ (DNA dT*dC*dC*dA*dT*dG*dA*dC*dG*dT*dT*dC*dC*dT*dG*dA*dT*dG*dC*dT) [TLR9-L]
proliferation of adoptively transferred TEM in the liver [1]: marked proliferation
proliferation of adoptively transferred TCM in the liver ([1]; cells in S and G2-M phase): strong proliferation
serum ALT ([2]; DNA vaccination (HBc or OVA) and TLR9-L 12 d later, most pronounced in HBc-vaccinated mice): transient rise
serum HBeAg levels ([2]; HBc-DNA vaccination in combination with TLR9-L, after 28 d): significant downregulation
HBV-infected (HBcore-Ag-positive) hepatocytes ([2]; HBc-DNA vaccination in combination with TLR9-L, d42): elimination
PD1 expression on recently activated CD69+ HBcore-specific CTLs ([2]; HBc-DNA vaccination plus TLR9-L): lower expression levels
IFNgamma expression of HBcore-specific CTLs upon antigen-specific restimulation ex vivo [2, 7]: functional and expressed IFNγ
expansion of HBc-specific CTLs in livers [2, 7]: pronounced expansion
iMATE formation ([2]; mice with chronic AdHBV infection): induced iMATE formation
in vivo bioluminescence (hepatic viral luciferase expression) ([3]; TLR9-L application alone, mice infected with 10^6 ifu AdLOG): did not significantly reduce
time to efficient control of hepatic viral luciferase expression ([3]; transfer of 10^4 OT-I CTLs together with TLR9-L, 10^6 ifu AdLOG): ≤ 4 days
expansion of CTLs locally in the liver ([4]; CTLs activated in vitro through TCR, CD28 and IL-12, with systemic TLR9-L): 50 fold
autoimmunity ([4]; single TLR9-L application): did not trigger autoimmunity
numbers of LCMV gp33-specific CTLs in the liver ([5]; LCMV-specific CTL transfer (10^6/mouse) together with TLR9-L at d0, d7 and d10): significant increase
LCMV titers in serum and liver ([5]; LCMV-specific CTL transfer together with TLR9-L injection): dropped to background levels
numbers of LCMV-specific CTLs ([5]; TLR9-L application alone, d14 after the first transfer): did not lead to significant increases
iMATE induction in livers ([5]; chronic LCMV-infected mice): can be induced
numbers of hepatic OT-I CTLs ([6]; AdLG-infected mice (no OVA antigen), 1x10^5 activated OT-I CTLs plus TLR9-L): increase
further expansion of OT-I CTLs ([6]; AdLGO-infected TLR9-L-injected mice, compared with AdLG-infected mice given TLR9-L): 7 fold
formation of iMATEs ([6]; upon TLR9-L injection in adenovirus-infected mice): further improved
